Results from PMC4264199, “Peptide Array on Cellulose Support—A Screening Tool to Identify Peptides with Dipeptidyl-Peptidase IV Inhibitory Activity within the Sequence of α-Lactalbumin” (International Journal of Molecular Sciences, 2014).
Where “and” joins values, the source holds several entries; their conditions need not be identical. Identical values can stand only once. Entries after “also recorded” stand apart in the source; their conditions may differ. Ends that are not written are not given here.

Experiments:
[1] = molecular target: T1, dipeptidyl-peptidase IV (DPP-IV) (Homo sapiens, UniProt P27487); experiment: Probing of membrane-bound peptide arrays: binding of DPP-IV to deca-peptides (immunoassay, chemiluminescence); conditions: for Binding of DPP-IV to cellulose-bound deca-peptide (in words): peptide array on cellulose membrane, DPP-IV 10 μg/mL
T1 construct: purchased Creative BioMart (Shirley, NY, USA); host or cells: HEK293 human cells
T1 sequence (P27487 whole entry): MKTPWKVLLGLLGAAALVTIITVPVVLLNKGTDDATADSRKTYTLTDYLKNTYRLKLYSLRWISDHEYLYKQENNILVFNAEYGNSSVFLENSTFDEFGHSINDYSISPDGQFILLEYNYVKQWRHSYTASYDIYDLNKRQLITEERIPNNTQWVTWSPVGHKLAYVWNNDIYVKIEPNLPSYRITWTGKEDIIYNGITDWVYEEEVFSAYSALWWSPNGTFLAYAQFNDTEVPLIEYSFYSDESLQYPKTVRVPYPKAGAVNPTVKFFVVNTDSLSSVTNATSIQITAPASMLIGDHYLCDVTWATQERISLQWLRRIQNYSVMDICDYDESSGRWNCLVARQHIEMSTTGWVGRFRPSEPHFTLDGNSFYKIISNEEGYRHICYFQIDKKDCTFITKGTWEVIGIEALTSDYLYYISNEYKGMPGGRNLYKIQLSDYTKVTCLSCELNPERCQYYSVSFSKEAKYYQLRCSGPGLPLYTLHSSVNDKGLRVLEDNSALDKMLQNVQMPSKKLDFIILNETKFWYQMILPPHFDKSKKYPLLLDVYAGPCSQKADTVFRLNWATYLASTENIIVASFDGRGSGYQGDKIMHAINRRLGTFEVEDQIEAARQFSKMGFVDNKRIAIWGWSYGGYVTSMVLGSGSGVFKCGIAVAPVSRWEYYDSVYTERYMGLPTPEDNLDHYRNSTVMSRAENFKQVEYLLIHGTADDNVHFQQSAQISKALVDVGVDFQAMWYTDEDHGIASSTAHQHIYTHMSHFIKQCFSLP
Protocol: The interaction between the DPP-IV enzyme and deca-peptides spanning the entire α-lactalbumin sequence (Table S1) was first determined by immunoassay and visualized using an enhanced chemiluminescence substrate (Figure 1).
The membranes were first blocked with protein-free (Tris-buffered saline (TBS)) blocking buffer containing 0.05% Tween-20 for 4 h at room temperature and then incubated with DPP-IV (10 μg/mL in blocking buffer) overnight at 4 °C. The membranes were washed with TBS (50 mM Tris, 136 mM NaCl, 0.05% Tween-20, pH 8.0) four times for 15 min each, after which they were incubated with the polyclonal goat DPP-IV antibody (0.2 µg/mL) for 8 h at 4 °C. The membranes were once again washed with TBS four times for 15 min each prior to being incubated with anti-goat secondary antibody conjugated to horseradish peroxidase (0.1 µg/mL) overnight at 4 °C. Finally, the membranes were washed four more times for 15 min each; then a thin layer of chemiluminescence detection mixture, prepared according to the manufacturer’s instructions, was applied for 1 min and the luminescence generated from the spots on the membranes with bound DPP-IV was measured using a ChemiDoc™ MP system (Bio-Rad Laboratories (Canada) Ltd., Mississauga, ON, Canada).

[2] = molecular target: T1, dipeptidyl-peptidase IV (DPP-IV); experiment: DPP-IV inhibition assay on traditionally-synthesized peptides; format: biochemical; conditions: 250 µM of peptides (final assay concentration); averages of three determinations
Source text: Recombinant human dipeptidyl-peptidase IV (DPP-IV, EC 3.4.14.5, expressed in HEK293 human cells, >95% purity, activity >5500 pmoles Gly–Pro–7-amido-4-methylcoumarin/min/µg) was purchased from Creative BioMart (Shirley, NY, USA) while polyclonal goat DPP-IV antibody and polyclonal donkey anti-goat secondary antibody conjugated to horseradish peroxidase were obtained from R&D Systems (Minneapolis, MN, USA). Pierce™ ECL western blotting substrate and protein-free (TBS) blocking buffer were from Thermo Scientific (Rockford, IL, USA). Gly–Pro–p-nitroanilide (H-Gly–Pro–p-NA∙HCl) was purchased from Bachem Americas (Torrance, CA, USA). Synthesized peptides (≥95% purity) were prepared and purified by GL Biochem (Shanghai) Ltd. (Shanghai, China).
The peptides were dissolved in a mixture of acetonitrile and H2O and further diluted in 100 mM Tris-HCl pH 8.0 buffer to the desired concentrations. In a 96-well microplate, 25 µL of sample were pre-incubated with 25 µL of 100 mM Tris-HCl pH 8.0 buffer and 35 µL of Gly–Pro–p-NA (0.29 mM in 100 mM Tris-HCl buffer pH 8.0) at 37 °C for 10 min. The enzymatic reaction was started by addition of 15 µL of DPP-IV solution (25 mU/mL) and carried out at 37 °C for 30 min. Sodium acetate buffer (1 M, pH 4.0, 100 µL) was added to stop the reaction and the absorbance of the released p-nitroaniline was measure at 405 nm using a Tecan Infinite® 200 Pro microplate reader. The positive and negative controls were prepared by using Tris-HCl buffer (100 mM, pH 8.0) in place of the sample and in place of the sample and enzyme solution, respectively.

[3] = molecular target: T1, dipeptidyl-peptidase IV (DPP-IV); experiment: Determination of the mode of inhibition and the inhibition constant (Ki); format: biochemical
Protocol: The traditionally-synthesized peptides showing the highest inhibitory activity against DPP-IV were further studied for their mode of action on the enzyme as previously described with the following modifications: the substrate (25 µL) was combined with 100 mM Tris-HCl buffer pH 8.0 (35 µL) and the sample (25 µL) and pre-incubated for 10 min at 37 °C, after which the enzymatic reaction was started by addition of the DPP-IV enzyme (15 µL of a 25 mU/mL solution).
The mode of inhibition and Ki values of the inhibitory peptides were determined by fitting the initial velocity versus substrate concentration data to nonlinear regression models using the GraphPad Prism software (version 6, GraphPad Software, San Diego, CA, USA). The Ki values are expressed as final assay concentrations.

[4] = molecular target: T1, dipeptidyl-peptidase IV (DPP-IV); experiment: DPP-IV inhibition assay on SPOT-synthesized peptides (cleaved from cellulose membrane); format: biochemical; conditions: for Percent inhibition of DPP-IV activity, SPOT-synthesized deca-peptides: peptides cleaved from cellulose membrane, concentration not known (semi-quantitative), averages of four determinations from two experiments
How it was run: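 Human DPP-IV expressed in HEK293 cells, with Gly–Pro–p-NA substrate (0.29 mM stock), was tested against α-lactalbumin decapeptides ammonia-cleaved from SPOT cellulose membranes and eluted in 50% acetonitrile/Tris, pH 8.0. After a 10-min preincubation, reaction ran 30 min at 37 °C, was stopped at pH 4.0, and p-nitroaniline absorbance was read at 405 nm.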

[5] = tested on: DPP-IV; conditions: Table S2; cited from earlier work

Binding of DPP-IV to cellulose-bound deca-peptide (in words) [1]	Sequence	Percent inhibition of DPP-IV activity, SPOT-synthesized deca-peptides [4]	inhibition at 250 µM [2]	Ki [3]	Reported Relationship to DPP-IV [5]	further results
	LPEWVCTTFH [C1, LPEWVCTTFH]	26%	26%	300 ± 16 µM		
found to bind to DPP-IV	HSQGTFTSDY [K8, reference compound]	15%			Inhibitor	
found to bind to DPP-IV	IVTQTMKGLD [K5, reference compound]	16%			Weak inhibitor	
	YPSKPDNPGE [K11, YPSKPDNPGE, reference compound]	31%	25%	262 ± 17 µM		
found to bind to DPP-IV	YAEGTFISDY [K9, reference compound]	24%				
	LCSEKLDQWL [J11, LCSEKLDQWL]	25%	25%	217 ± 15 µM		
	IPAVFKIDA				inhibitor	
	LKPTPEGDLE [K6, LKPTPEGDLE]	23%	24%	729 ± 128 µM		
strongest binding to DPP-IV	VKKILDKVGI [I4]	18%				Percent inhibition of DPP-IV activity, SPOT-synthesized deca-peptides ([4]; listed as VKKILDKVGI): less than 20%
	LKPTPEGDL				inhibitors	
	LKPTPEGDLEIL				inhibitors	
strongest binding to DPP-IV	KKILDKVGIN [I5]	17%				Percent inhibition of DPP-IV activity, SPOT-synthesized deca-peptides ([4]; listed as KKILDKVGIN): less than 20%
	LAHKALCSEK [J6, LAHKALCSEK]	27%	31%	217 ± 9 µM		
	IPAVFKIDAL [K7, IPAVFKIDAL]	25%	48%	156 ± 11 µM		

Sequence	Binding of DPP-IV to cellulose-bound deca-peptide (in words) [1]	Percent inhibition of DPP-IV activity, SPOT-synthesized deca-peptides [4]	inhibition at 250 µM [2]	Ki [3]	Reported Relationship to DPP-IV [5]	further results
WCKDDQNPHS [F5]	moderate or no binding; also recorded: no or only moderate interaction with DPP-IV	29%				Category: binding ([1]; peptide array spot, relative luminescence intensity): moderate/no binding; % DPP-IV Inhibition Traditionally-Synthesized [2]: 51%; αKi ([3]; traditionally synthesized peptide, un-competitive inhibition, final assay concentration, average ± standard error, triplicate): 76 µM and 76 ± 5 µM; Mode of Inhibition ([3]; traditionally synthesized peptides, Lineweaver-Burk / nonlinear regression): Un-competitive; Category: inhibitory activity ([4]; class by decrease in DPP-IV activity): High inhibitory activity (High inhibitory activity refers to peptides able to cause more than 20% decrease in DPP-IV activity)
